Data taken from patent US9974778B2, “Substituted pyridinones as MGAT2 inhibitors” (BRISTOL-MYERS SQUIBB COMPANY, priority 2014, dated 2018).

Target: T1, Human MGAT-2 (Homo sapiens, UniProt Q3SYC2)
T1 construct: made in house; host or cells: Sf9 cells (membrane preparation)
Assay: MGAT LCMS Assay
Type: biochemical
Settings: human MGAT2 membranes expressed in Sf9 cells; 100 μM 2-oleoylglycerol, 15 μM oleoyl-coenzyme A; read-out: h-MGAT LCMS IC50
In short: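 Robotic enzyme reaction shaken 10 min, quenched with ice-cold methanol containing 1 μg/mL 1,2-distearoyl-rac-glycerol internal standard. Diolein product measured by LC/MS (C8 column, 65° C, APCI(+) triple quad). IC50 derived from diolein/internal standard peak area ratio.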

T1 sequence (Q3SYC2 whole entry): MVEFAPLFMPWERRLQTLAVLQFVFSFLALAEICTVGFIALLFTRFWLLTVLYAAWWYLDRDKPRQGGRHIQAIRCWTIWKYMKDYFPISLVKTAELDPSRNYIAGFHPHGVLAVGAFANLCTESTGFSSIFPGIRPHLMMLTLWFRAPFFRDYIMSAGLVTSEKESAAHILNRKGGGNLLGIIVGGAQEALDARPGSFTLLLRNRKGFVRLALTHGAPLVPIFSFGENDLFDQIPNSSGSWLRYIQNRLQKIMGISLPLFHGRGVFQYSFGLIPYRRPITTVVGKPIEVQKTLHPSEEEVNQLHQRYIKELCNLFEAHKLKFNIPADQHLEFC

IC50 [nM]	Structure (SMILES)
55	CCCC1CC=C(c2ccc(-c3cc(-c4ccc(CC)s4)c(-c4nn[nH]n4)c(=O)[nH]3)cc2)CC1 (stereo not shown) [Example 164, 4-(5-Ethylthiophen-2-yl)-6-[4-(4-propylcyclohex-1-en-1-yl)phenyl]-3-(2H-1,2,3,4-tetrazol-5-yl)-1,2-dihydropyridin-2-one]
420	O=c1cc(-c2ncc(C3CC3)s2)cc(-c2ccc(OCCCCCC(F)(F)F)cc2F)[nH]1 [Example 165, 4-(5-Cyclopropyl-1,3-thiazol-2-yl)-6-{2-fluoro-4-[(6,6,6-trifluorohexyl)oxy]phenyl}-1,2-dihydropyridin-2-one]
70	CCc1cnc(-c2cc(-c3ccc(OCCCCCC(F)(F)F)cc3F)[nH]c(=O)c2)s1 [Example 166, 4-(5-Ethyl-1,3-thiazol-2-yl)-6-{2-fluoro-4-[(6,6,6-trifluorohexyl)oxy]phenyl}-1,2-dihydropyridin-2-one]
39	CCCC1CCC(c2ccc(-c3cc(-c4ccc(CC)s4)c(-c4nn[nH]n4)c(=O)[nH]3)cc2)CC1 (stereo not shown) [Example 167, 4-(5-Ethylthiophen-2-yl)-6-[4-(4-propylcyclohexyl)phenyl]-3-(2H-1,2,3,4-tetrazol-5-yl)-1,2-dihydropyridin-2-one]
373	O=c1[nH]c(-c2ccc(OCCCCCC(F)(F)F)cc2F)cc(-c2ccn(CC3CC3)n2)c1-n1nn[nH]c1=O [Example 168, 4-[1-(Cyclopropylmethyl)-1H-pyrazol-3-yl]-6-{2-fluoro-4-[(6,6,6-trifluorohexyl)oxy]phenyl}-3-(5-oxo-4,5-dihydro-1H-1,2,3,4-tetrazol-1-yl)-1,2-dihydropyridin-2-one]
9	O=c1[nH]c(-c2ccc(OCCCCCC(F)(F)F)cc2F)cc(-c2nn(CC3CC3)cc2Cl)c1-n1nn[nH]c1=O [Example 169, 4-[4-Chloro-1-(cyclopropylmethyl)-1H-pyrazol-3-yl]-6-{2-fluoro-4-[(6,6,6-trifluorohexyl)oxy]phenyl}-3-(5-oxo-4,5-dihydro-1H-1,2,3,4-tetrazol-1-yl)-1,2-dihydropyridin-2-one]
17	CC1(C)CC=C(c2ccc(-c3cc(-c4ccn(CC5CC5)n4)c(-c4nn[nH]n4)c(=O)[nH]3)cc2)CC1 [Example 170, 4-[1-(Cyclopropylmethyl)-1H-pyrazol-3-yl]-6-[4-(4,4-dimethylcyclohex-1-en-1-yl)phenyl]-3-(2H-1,2,3,4-tetrazol-5-yl)-1,2-dihydropyridin-2-one]
6	CC(C)(C)C1CC=C(c2ccc(-c3cc(-c4ccn(CC5CC5)n4)c(-c4nn[nH]n4)c(=O)[nH]3)cc2)CC1 (stereo not shown) [Example 171, 6-[4-(4-tert-Butylcyclohex-1-en-1-yl)phenyl]-4-[1-(cyclopropylmethyl)-1H-pyrazol-3-yl]-3-(2H-1,2,3,4-tetrazol-5-yl)-1,2-dihydropyridin-2-one]
26	CC1(C)CCC(c2ccc(-c3cc(-c4ccn(CC5CC5)n4)c(-c4nn[nH]n4)c(=O)[nH]3)cc2)CC1 [Example 172, 4-[1-(Cyclopropylmethyl)-1H-pyrazol-3-yl]-6-[4-(4,4-dimethylcyclohexyl)phenyl]-3-(2H-1,2,3,4-tetrazol-5-yl)-1,2-dihydropyridin-2-one]
57	CCCC1CC=C(c2ccc(-c3cc(-c4ccn(CC5CC5)n4)c(-c4nn[nH]n4)c(=O)[nH]3)cc2)CC1 (stereo not shown) [Example 173, 4-[1-(Cyclopropylmethyl)-1H-pyrazol-3-yl]-6-[4-(4-propylcyclohex-1-en-1-yl)phenyl]-3-(2H-1,2,3,4-tetrazol-5-yl)-1,2-dihydropyridin-2-one]
